Measured values from US5622969A, “Method of treating leukotriene caused diseases with N-benzyl dihydroindole LTD4 antagonists” (Eli Lilly and Company, priority 1995, dated 1997).

Experiments:
[1] = target: T1, LTD4 receptor (guinea pig lung membrane) (Cavia porcellus, UniProt Q2NNR5); assay: Assay 3 - Guinea Pig Lung Membrane [3H] LTD4 Radioligand Binding (GPLM binding); details: [3H] LTD4, guinea pig lung membrane, 30 min, 30° C., pH 6.5; for Ki: read-out: GPLM binding (pKi) (converted)
T1 construct: guinea-pig lung membrane preparation; from tissue; host or cells: guinea pig lung membranes
T1 sequence (Q2NNR5 1-340): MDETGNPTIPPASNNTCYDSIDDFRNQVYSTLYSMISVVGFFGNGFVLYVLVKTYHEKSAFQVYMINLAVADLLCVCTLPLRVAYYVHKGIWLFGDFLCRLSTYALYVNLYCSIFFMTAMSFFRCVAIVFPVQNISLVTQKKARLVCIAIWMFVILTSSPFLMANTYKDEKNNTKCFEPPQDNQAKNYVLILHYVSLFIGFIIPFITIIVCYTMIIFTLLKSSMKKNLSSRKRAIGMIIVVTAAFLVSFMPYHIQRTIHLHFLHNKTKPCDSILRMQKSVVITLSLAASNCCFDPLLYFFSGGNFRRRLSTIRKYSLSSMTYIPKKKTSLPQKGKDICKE
Experimental: Assay 3--Guinea Pig Lung Membrane [^3 H] LTD4 Radioligand Binding: [^3 H] LTD4 was purchased from New England Nuclear (Boston, Mass.). All other chemicals were purchased from Sigma (St. Louis, Mo.). Incubations were performed in silanised glass tubes and contained 30 mg of guinea-pig lung membrane preparation (Saussy, et al., Mol. […] The binding reaction was terminated after 30 min. at 30° C. by the addition of 4 ml ice cold wash buffer (25 mM Tris --HCl, pH 7.5), followed immediately by vacuum filtration over Whatman (GF/C glass fibre filters, using a Brandel (Gaithersburg, Md.) 48 place harvester. The tubes and filter were washed 3×4 ml in cold wash buffer. Retained radioactivity was determined by liquid scintillation counting at 50% counting efficiency using Ready Protein Plus cocktail (Beckman, Fullerton, Calif.). Data were analyzed using linear regression analysis of log-logit plots of the values between 10% and 90% of control biding to calculate I[…] and slope factors (pseudo-Hill coefficients). IC50 values were corrected for radioligand concentrations (Cheng and Prusoff, Biochem. Pharmacol. 22:3099-3108, 1973) to calculate Ki values.

[2] = target: T2, leukotriene receptor (guinea pig trachea) (Cavia porcellus, UniProt Q2NNR5); assay: Assay 1 - Guinea Pig Tracheae, leukotriene receptor antagonism (LTD4 contraction); details: antagonist added 45 minutes prior, read-out: GP trach (pKb) (converted)
T2 construct: Trachea were cut into ring segments and the epithelium removed; from tissue; host or cells: guinea pig tracheal rings, epithelium removed (male Hartley)
T2 sequence (Q2NNR5 1-340): T1 sequence (Q2NNR5 1-340)
Experimental: Assay 1--Guinea Pig Tracheae
Leukotriene receptor antagonism was evaluated in isolated smooth muscles by the following procedure:
Male Hartley guinea pigs weighing 250-400 grams were asphyxiated with CO2 and exsanguinated. Trachea were excised and placed in Krebs'-bicarbonate solution of the following composition in mM/liter: NaCl, 118.2; NaHCO3, 24.8; KCl, 4.6; KH2 PO4, 1.2, MgSO4.7H2 O, 1.2; dextrose, 10.0; CaCl2.2H2 O, 2.5; 1-cysteine, 3.0, and indomethacin, 3 μM. Trachea were cut into ring segments and the epithelium removed by gently rubbing the luminal surface with a cotton swab. Tracheal rings were placed on supports constructed from two 1 inch 30 gauge disposable stainless steel hypodermic needles (Hooker, et al., 1977, Blood Vessels 14:1-11), and transferred to organ baths containing Krebs' solution maintained at 37° C. and aerated with 95% O2 and 5% CO2. Isometric measurements were made with a Grass FTO3C force-displacement transducer and recorded on a Grass polygraph as changes in grams of force. After approximately 60 minutes of equilibration, a single submaximal concentration of LTD4 (3×10^-8 M) was used to contract the trachea. Two LTD4 concentration-response curves were then generated using the cumulative response technique of Van Rossum (1963). A potential leukotriene receptor antagonist was added to the tissue bath 45 minutes prior to generation of the second LTD4 concentration-response curve.
(§1) The contractions of trachea and ilea to LTD4 in the presence of the drug was compared to responses in the absence of drug. KB values were calculated by the method of Furchgott (Ann. N.Y. Acad. Sci., 139:553, 1967) using the following equation: KB =[Antagonist]/Dose-Ratio-1.

[3] = target: T3, LTD4 receptor (intestinal smooth muscle receptors, guinea pig ileum) (Cavia porcellus, UniProt Q2NNR5); assay: Assay 2 - Guinea Pig Ileum, antagonism of LTD4 contraction; details: drug added 30 minutes prior, read-out: GP ileum (pKb) (converted)
T3 construct: Terminal ilea were removed from the animals; from tissue; host or cells: guinea pig terminal ileum segments
T3 sequence (Q2NNR5 1-340): T1 sequence (Q2NNR5 1-340)
Experimental: Assay 2--Guinea Pig Ileum:
Guinea pig ileum was used to determine the potency of novel LTD4 receptor antagonists on intestinal smooth muscle receptors. Terminal ilea were removed from the animals exsanguinated after CO2 asphyxiation and cut into smaller segments of approximately 2 to 3 cm. Tissues were placed in organ baths containing Krebs'bicarbonate solution prepared without indomethacin and 1-cysteine and aerated with 95% O2 and 5% CO2. After a 60 minute equilibration period, 3 submaximal contractions to histamine (3×10^-6 M) were obtained on all tissues. A cumulative concentration-response curve to LTD4 was then generated using the method of Van Rossum (Arch. Int. Pharmacodyn. Ther. 143:299, 1963). Agonist was washed from the baths and the tissues permitted to recover. After a second LTD4 concentration-response curve was produced, the ilea were washed once again and permitted to re-equilibrate. Experimental drug was added to the baths 30 minutes prior to a final LTD4 concentration-response curve.
as §1

Compound | Ki [1] | Kb [2] | GPLM binding (pKi) [1] | Kb [3]
Clc1ccc2ccc(/C=C/c3cccc(CN4CCc5cccc(OCc6nn[nH]n6)c54)c3)nc2c1 [Example 10, 5-[1-[3-[2-E-(7-Chloroquinolin-2-yl)ethenyl]benzyl]-2,3-dihydroindol-7-yloxymethyl]-1H-tetrazole] | 2.45 nM | – | – | –
Clc1ccc2ccc(COc3cccc(CN4CCc5cccc(CCc6nnn[nH]6)c54)c3)nc2c1 [Example 5, 5-[2-[1-[3-(7-Chloroquinolin-2-ylmethoxy)benzyl]-2,3-dihydroindol-7-yl]-ethyl]-1H-tetrazole] | – | 8.32 nM | 8.0 | 3.89 nM
Clc1ccc2ccc(/C=C/c3ccc(CN4CCc5cccc(CCc6nnn[nH]6)c54)cc3)nc2c1 [Example 11, 5-[2-[1-[4-[2-E-(7-Chloroquinolin-2-yl)ethenyl]benzyl]-2,3-dihydroindol-7-yl]-ethyl]-1H-tetrazole] | 2.34 nM | – | – | –
c1cc(CN2CCc3cccc(CCc4nnn[nH]4)c32)cc(OCc2ccc3ccccc3n2)c1 [Example 7, 5-[2-[1-[3-(Quinolin-2-ylmethoxy)benzyl]-2,3-dihydroindol-7-yl]-ethyl]-1H-tetrazole] | – | 15.8 nM | 7.3 | 11.2 nM
Clc1ccc2ccc(/C=C/c3cccc(CN4CCc5cccc(CCc6nnn[nH]6)c54)c3)nc2c1 [Example 4, 5-[2-[1-[3-[2-E-(7-Chloroquinolin-2-yl)ethenyl]benzyl]-2,3-dihydroindol-7-yl]ethyl]-1H-tetrazole] | – | 28.8 nM | 8.3 | 2.34 nM
Clc1ccc2ccc(COc3ccc(CN4CCc5cccc(CCc6nnn[nH]6)c54)cc3)nc2c1 [Example 6, 5-[2-[1-[4-(7-Chloroquinolin-2-ylmethoxy)benzyl]-2,3-dihydroindol-7-yl]-ethyl]-1H-tetrazole] | – | 25.7 nM | 7.6 | 3.24 nM
C(=C\c1ccc2ccccc2n1)/c1cccc(CN2CCc3cccc(CCc4nnn[nH]4)c32)c1 [Example 9, 5-[2-[1-[3-[2-E-(Quinolin-2-yl)ethenyl]benzyl]-2,3-dihydroindol-7-yl]ethyl]-1H-tetrazole] | – | – | 7.8 | 2.51 nM
